Reference: patent US7541368B2, “Pyrazoles as inhibitors of tumor necrosis factor” (Aventis Pharmaceuticals Inc., priority 2003, dated 2009)

System: TNF-alpha release in THP-1 cells
Experiment: LPS-induced TNF-alpha release in THP-1 cells
Assay type: cell-based
Settings: Homo sapiens, THP-1, LPS-stimulated THP-1 cells; read-out: 50% inhibition in the LPS-induced TNF-alpha release in THP-1 cells assay at concentrations within the range
Method: The effects of compounds on TNF-alpha production by lipopolysaccharide (LPS)-stimulated […] monocytes were examined as follows.
Undifferentiated THP-1 cells were maintained in RPMI 1640 with Glutamax I containing β-mercaptoethananol (50 μM) and foetal calf serum (FCS-10%) at densities of about 1×10^6 cells per ml. For incubations without and with test reagents, cells were seeded at the indicated densities under serum-deprived (1% FCS) conditions. Compounds were dissolved in dimethylsulfoxide (DMSO-100%) and incubated with the cells to give a fmal DMSO concentration of 0.3%. Control and untreated cell samples were incubated with DMSO (0.3%).
THP-1 cells (1×10 ^6 cells/ml, total volume 150 μl) in culture medium were incubated for 1 hour (5% CO2, 37° C.) with fresh medium containing compounds or vehicle (0.1-0.3% dimethylsulfoxide). LPS (20 μg/ml) was then added to the cells and the incubation continued for a fuirther 18 hours. Cell supernatants were removed into 96 well plates for storage at −20° C.
TNF-alpha concentrations in cell supernatants were quantified by sandwich ELISA. Briefly, ELISA plates were coated overnight with 2 μg/ml of mouse anti-human TNF-alpha antibody in bicarbonate buffer (pH 9.9). After washing the wells with wash buffer (0.05% (v/v) Tween in PBS)and blocking unoccupied sites (1% BSA in wash buffer), monocyte supernatant samples or human recombinant TNF-alpha standards were added into the corresponding wells of the ELISA plate at 1:10 dilution. Biotinylated rabbit polyclonal anti-human TNF-alpha antibody (3 μg/ml) was used as the second antibody and streptavidin-horseradish peroxidase was used as the detection antibody. The peroxidase substrate is 3,3′,5,5′-tetramethylbenzidine (TMB) in the presence of hydrogen peroxide.
TNFα concentrations in supernatants from control and LPS-stimulated monocyte incubations were calculated by interpolation from a standard (log/log) curve (0.125-16 ng/ml) fitted by Excel Fit using the Activity Base software. Compounds were tested within the concentration range of 1×10^−9M to 1×10^−6M.

Row | IC50 | SMILES
1 | 10 to 500 nM | Cc1ccc(-n2nc(C(C)(C)C)cc2NC(=O)Nc2cccc(CC3CCN(C(=O)c4ccsc4)CC3)c2)cc1 [Compound A99, 1-(5-tert-Butyl-2-p-tolyl-2H-pyrazol-3-yl)-3-{3-[1-(thiophene-3-carbonyl)-piperidin-4-ylmethyl]-phenyl}-urea]
2 | 10 to 500 nM | Cc1ccc(-n2nc(C(C)(C)C)cc2NC(=O)Nc2cccc(CC3CCN(C(=O)C4=Cc5sccc5CC4)CC3)c2)cc1 [Compound A102, 1-(5-tert-Butyl-2-p-tolyl-2H-pyrazol-3-yl)-3-{3-[1-(4,5-dihydro-benzo[b]thiophene-6-carbonyl)-piperidin-4-ylmethyl]-phenyl}-urea]
3 | 10 to 500 nM | Cc1ccc(-n2nc(C(C)(C)C)cc2NC(=O)Nc2cccc(CC3CCN(C(=O)c4ccc(-c5cnco5)cc4)CC3)c2)cc1 [Compound A106, 1-(5-tert-Butyl-2-p-tolyl-2H-pyrazol-3-yl)-3-{3-[1-(4-oxazol-5-yl-benzoyl)-piperidin-4-ylmethyl]-phenyl}-urea]
4 | 10 to 500 nM | Cc1ccc(-n2nc(C(C)(C)C)cc2NC(=O)Nc2cccc(CC3CCN(C(=O)c4ccc(OC(F)F)cc4)CC3)c2)cc1 [Compound A111, 1-(5-tert-Butyl-2-p-tolyl-2H-pyrazol-3-yl)-3-{3-[1-(4-difluoromethoxy-benzoyl)-piperidin-4-ylmethyl]-phenyl}-urea]
5 | 10 to 500 nM | Cc1ccc(-n2nc(C(C)(C)C)cc2NC(=O)Nc2cccc(CC3CCN(C(=O)c4ccc(N)c(OC(F)(F)F)c4)CC3)c2)cc1 [Compound A114, 1-{3-[1-(4-Amino-3-trifluoromethoxy-benzoyl)-piperidin-4-ylmethyl]-phenyl}-3-(5-tert-butyl-2-p-tolyl-2H-pyrazol-3-yl)-urea]
6 | 10 to 500 nM | Cc1ccc(-n2nc(C(C)(C)C)cc2NC(=O)Nc2cccc(CC3CCN(C(=O)c4ccc(CO)cc4)CC3)c2)cc1 [Compound A118, 1-(5-tert-Butyl-2-p-tolyl-2H-pyrazol-3-yl)-3-{3-[1-(4-hydroxymethyl-benzoyl)-piperidin-4-ylmethyl]-phenyl}-urea]
7 | 10 to 500 nM | COc1ccc(OCC(=O)N2CCC(Cc3cccc(NC(=O)Nc4cc(C(C)(C)C)nn4-c4ccc(C)cc4)c3)CC2)cc1 [Compound A121, 1-(5-tert-Butyl-2-p-tolyl-2H-pyrazol-3-yl)-3-(3-{1-[2-(4-methoxy-phenoxy)-acetyl]-piperidin-4-ylmethyl}-phenyl)-urea]
8 | 10 to 500 nM | COc1ccc(CC(=O)N2CCC(Cc3cccc(NC(=O)Nc4cc(C(C)(C)C)nn4-c4ccc(C)cc4)c3)CC2)cc1 [Compound A122, 1-(5-tert-Butyl-2-p-tolyl-2H-pyrazol-3-yl)-3-(3-{1-[2-(4-methoxy-phenyl)-acetyl]-piperidin-4-ylmethyl}-phenyl)-urea]
9 | 10 to 500 nM | Cc1ccc(-n2nc(C(C)(C)C)cc2NC(=O)Nc2cccc(CC3CCN(C(=O)c4cnccc4C(F)(F)F)CC3)c2)cc1 [Compound A126, 1-(5-tert-Butyl-2-p-tolyl-2H-pyrazol-3-yl)-3-{3-[1-(4-trifluoromethyl-pyridine-3-carbonyl)-piperidin-4-ylmethyl]-phenyl}-urea]
10 | 10 to 500 nM | Cc1ccc(-n2nc(C(C)(C)C)cc2NC(=O)Nc2cccc(CC3CCN(C(=O)c4ccc(Cl)s4)CC3)c2)cc1 [Compound A131, 1-(5-tert-Butyl-2-p-tolyl-2H-pyrazol-3-yl)-3-{3-[1-(5-chloro-thiophene-2-carbonyl)-piperidin-4-ylmethyl]-phenyl}-urea]
11 | 10 to 500 nM | COc1ccc(OCC(F)(F)F)c(C(=O)N2CCC(Cc3cccc(NC(=O)Nc4cc(C(C)(C)C)nn4-c4ccc(C)cc4)c3)CC2)c1 [Compound A132, 1-(5-tert-Butyl-2-p-tolyl-2H-pyrazol-3-yl)-3-(3-{1-[5-methoxy-2-(2,2,2-trifluoro-ethoxy)-benzoyl]-piperidin-4-ylmethyl}-phenyl)-urea]
12 | 10 to 500 nM | Cc1ccc(-n2nc(C(C)(C)C)cc2NC(=O)Nc2cccc(CC3CCN(C(=O)c4cnc(C)cn4)CC3)c2)cc1 [Compound A140, 1-(5-tert-Butyl-2-p-tolyl-2H-pyrazol-3-yl)-3-{3-[1-(5-methyl-pyrazine-2-carbonyl)-piperidin-4-ylmethyl]-phenyl}-urea]
13 | 10 to 500 nM | Cc1ccc(-n2nc(C(C)(C)C)cc2NC(=O)Nc2cccc(CC3CCN(C(=O)c4ccc(N)nc4)CC3)c2)cc1 [Compound A144, 1-{3-[1-(6-Amino-pyridine-3-carbonyl)-piperidin-4-ylmethyl]-phenyl}-3-(5-tert-butyl-2-p-tolyl-2H-pyrazol-3-yl)-urea]
14 | 10 to 500 nM | Cc1ccc(-n2nc(C(C)(C)C)cc2NC(=O)Nc2cccc(CC3CCN(C(=O)c4cccc(C)n4)CC3)c2)cc1 [Compound A146, 1-(5-tert-Butyl-2-p-tolyl-2H-pyrazol-3-yl)-3-{3-[1-(6-methyl-pyridine-2-carbonyl)-piperidin-4-ylmethyl]-phenyl}-urea]
15 | 10 to 500 nM | CC(=O)OCc1ccc(C(=O)N2CCC(Cc3cccc(NC(=O)Nc4cc(C(C)(C)C)nn4-c4ccc(C)cc4)c3)CC2)cc1 [Compound A148, Acetic acid 4-(4-{3-[3-(5-tert-butyl-2-p-tolyl-2H-pyrazol-3-yl)-ureido]-benzyl}-piperidine-1-carbonyl)-benzyl ester]
16 | 10 to 500 nM | Cc1ccc(-n2nc(C(C)(C)C)cc2NC(=O)Nc2cccc(CC3CCN(C(=O)c4ccc5ncsc5c4)CC3)c2)cc1 [Compound A150, 1-{3-[1-(Benzothiazole-6-carbonyl)-piperidin-4-ylmethyl]-phenyl}-3-(5-tert-butyl-2-p-tolyl-2H-pyrazol-3-yl)-urea]
17 | 10 to 500 nM | Cc1ccc(-n2nc(C(C)(C)C)cc2NC(=O)Nc2cccc(CC3CCN(C(=O)c4coc5c4C(=O)CCC5)CC3)c2)cc1 [Compound A154, 1-(5-tert-Butyl-2-p-tolyl-2H-pyrazol-3-yl)-3-{3-[1-(4-oxo-4,5,6,7-tetrahydro-benzofuran-3-carbonyl)-piperidin-4-ylmethyl]-phenyl}-urea]
18 | 10 to 500 nM | Cc1ccc(-n2nc(C(C)(C)C)cc2NC(=O)Nc2cccc(CC3CCN(C(=O)c4n[nH]c5ccccc45)CC3)c2)cc1 [Compound A167, 1-(5-tert-Butyl-2-p-tolyl-2H-pyrazol-3-yl)-3-{3-[1-(1H-indazole-3-carbonyl)-piperidin-4-ylmethyl]-phenyl}-urea]
19 | 10 to 500 nM | Cc1ccc(-n2nc(C(C)(C)C)cc2NC(=O)Nc2cccc(CC3CCN(C(=O)Cc4c[nH]c5ccccc45)CC3)c2)cc1 [Compound A168, 1-(5-tert-Butyl-2-p-tolyl-2H-pyrazol-3-yl)-3-{3-[1-(2-1H-indol-3-yl-acetyl)-piperidin-4-ylmethyl]-phenyl}-urea]
20 | 10 to 500 nM | Cc1ccc(-n2nc(C(C)(C)C)cc2NC(=O)Nc2cccc(CC3CCN(C(=O)Cc4ccccc4C)CC3)c2)cc1 [Compound A182, 1-(5-tert-Butyl-2-p-tolyl-2H-pyrazol-3-yl)-3-{3-[1-(2-o-tolyl-acetyl)-piperidin-4-ylmethyl]-phenyl}-urea]
21 | 10 to 500 nM | Cc1ccc(-n2nc(C(C)(C)C)cc2NC(=O)Nc2cccc(CC3CCN(C(=O)c4ccc5ccccc5n4)CC3)c2)cc1 [Compound A184, 1-(5-tert-Butyl-2-p-tolyl-2H-pyrazol-3-yl)-3-{3-[1-(quinoline-2-carbonyl)-piperidin-4-ylmethyl]-phenyl}-urea]
